Test results: US11213538B2, “Agent for overcoming immunosuppression and use thereof” (GENERAL INCORPORATED ASSOCIATION PHARMA VALLEY PROJECT …, priority 2016, dated 2022)

Experiments:
[1] = target: T1, FOXP3 (Homo sapiens, UniProt Q9BZS1); assay: FOXP3 function inhibitory activity, NF-κB luciferase reporter in HEK293/NF-κB-RE/FOXP3 cells with TNF-alpha; assay type: cell-based; settings: for Chemiluminescence intensity ratio (HEK293/NF-κB-RE/FOXP3 cells / HEK293/NF-κB-RE cells): DMSO control = 1.0
T1 construct: expressed in transfected cells
T1 sequence (Q9BZS1 1-431): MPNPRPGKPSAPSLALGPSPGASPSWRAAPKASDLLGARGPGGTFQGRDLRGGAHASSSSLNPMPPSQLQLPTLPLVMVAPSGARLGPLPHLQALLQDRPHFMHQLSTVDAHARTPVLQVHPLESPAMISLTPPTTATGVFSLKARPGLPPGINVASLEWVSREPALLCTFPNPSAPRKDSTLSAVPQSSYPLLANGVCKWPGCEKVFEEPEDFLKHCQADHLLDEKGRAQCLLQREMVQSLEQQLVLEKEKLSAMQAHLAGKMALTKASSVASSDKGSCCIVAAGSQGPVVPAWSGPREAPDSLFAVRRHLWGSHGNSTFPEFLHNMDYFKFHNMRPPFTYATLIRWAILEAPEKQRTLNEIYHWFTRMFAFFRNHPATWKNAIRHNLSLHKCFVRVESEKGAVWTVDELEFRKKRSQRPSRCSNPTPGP
Experimental: Into HEK293/NF-κB-RE cells, pcDNA3.1-FOXP3 (Department of Cancer vaccine therapy/Immuno-gene therapy, Mie University Graduate School of Medicine), which is a FOXP3 gene expression vector, was introduced, and the cells were subjected to a selection through culture in a medium containing 0.5 mg/mL G418 for 3 weeks. The obtained single clone was isolated and established as a stable line. For culture, DMEM containing 10% heat inactivated […], 0.2 mg/mL Hygromycin B, and 0.5 mg/mL G418 was used.
A cell suspension of 1.875×10^5 cells/mL was prepared for HEK293/NF-κB-RE/FOXP3 cells and HEK293/NF-κB-RE cells, respectively, using DMEM with 10% heat inactivated FBS and without phenol red (medium for assay). The cell suspension was seeded into a 96 well white microplate (nunc) at 80 μL/well (1.5×10^4 cells/well) and the cells were cultured overnight under the conditions of 37° C. and 5% CO2.
A DMSO solution of a test drug with a concentration of 1000 times the final concentration was diluted 100 times with the medium for assay to prepare a test drug solution with a concentration of 10 times the final concentration (a 10 times concentration test drug solution). To each well into which the cell suspension was seeded, 10 μL of the 10 times concentration test drug solution was added and treatment was carried out under the conditions of 37° C. and 5% CO2 for an hour (10 μL of a 1% DMSO solution was added to the control at this time).
Recombinant Human TNF-alpha (R&D Systems) was made to 100 μg/mL with 0.1% BSA-containing PBS, and was further diluted with the medium for assay to prepare a 3 ng/mL TNF-alpha solution. To each well described above, 10 μL of the 3 ng/mL TNF-alpha solution was added, and stimulation was performed under the conditions of 37° C. and 5% CO2 for 2.5 hours (the final concentration of TNF-alpha: 0.3 ng/mL).
The culture supernatant was removed, and the cells were washed once with 100 μL of the medium for assay. After adding 100 μL of the medium for assay, 50 μL of Steady-Glo (Promega Corporation) was added. The microplate was shaken for 10 minutes on a plate shaker with the light blocked. After shaking, the chemiluminescence intensity was measured by ARVO Light plate reader (Perkin Elmer). It should be noted that each test was carried out three times. The results obtained by using HEK293/NF-κB-RE/FOXP3 cells are shown in FIG. 1(A) and the results obtained by using HEK293/NF-κB-RE cells are shown in FIG. 1(B).
The FOXP3 inhibitory activity was evaluated in the same method as that in Example 1 except that the test drug was changed to epirubicin, pirarubicin, daunorubicin, doxorubicin, or idarubicin. The final concentration of each test drug was 0.01, 0.03, 0.1, 0.3 or 1 μM (only epirubicin and doxorubicin were tested also at 1 μM, and idarubicin was tested only at 0.01 and 0.03 μM).
Furthermore, the chemiluminescence intensity ratio was calculated by the Formula 1 below. The test was carried out three times. Chemiluminescence intensity ratio=(chemiluminescence intensity measured when HEK293/NF-κB-RE/FOXP3 cells were used)/(chemiluminescence intensity measured when HEK293/NF-κB-RE cells were used) [Formula 1] 3. Results

[2] = system: mouse regulatory T cells; assay: Overcoming immunosuppressive action of mouse regulatory T cells: growth of CFSE-stained CD8+ T cells co-cultured with epirubicin-treated CD4+CD25+ T lymphocytes; assay type: cell-based, BALB/c mice; settings: in the presence of regulatory T cells treated with epirubicin at a low dose not showing cytotoxicity, FIG. 2
Experimental: Anti-CD3 antibody (1 μg/mL, manufactured by eBioscience) was added to a 12 well flat-bottom plate and the plate was left to stand at 4° C. overnight, and then washed with RPMI 1640 medium. Spleen was isolated from BALB/c mice, and CD4^+CD25^+ T lymphocytes were isolated using a mouse regulatory T cell isolation kit (manufactured by Miltenyi Biotec) and autoMACS separator (manufactured by Miltenyi Biotec). To the 12 well flat-bottom plate coated with anti-CD3 antibody, seven hundred thousand CD4^+CD25^+ T lymphocytes per well were added, and anti-CD28 antibody (manufactured by eBioscience) and IL-2 (NOVARTIS) were added so that the concentrations were 1 μg/mL and 60 IU/mL, respectively. Next, epirubicin was added at various concentrations and the lymphocytes were cultured in an incubator at 37° C. for 48 hours and then washed with a 10% FBS supplemented RPMI 1640 medium.
Anti-CD3 antibody (1 μg/mL, manufactured by eBioscience) was added to a 96 well flat-bottom plate and the plate was left to stand at 4° C. overnight, and then washed with RPMI 1640 medium. […] The lymphocytes were collected and washed with PBS containing 0.5% BSA, and then stained with anti-CD8-APC antibody (manufactured by eBioscience) and analyzed using FACS Canto II flow cytometer (manufactured by Becton Dickinson).

[3] = system: CD4+FOXP3+ and CD4+FOXP3− tumor-infiltrating lymphocytes; assay: IFN-γ positive cells among tumor-infiltrating lymphocytes of CMS5a tumor-bearing mice; assay type: in vivo, BALB/c mice; settings: epirubicin 0.1, 0.3, 1 mg/kg intravenously on days 3, 5, 7, TIL collected day 8
Experimental: CMS5a cells were transplanted under the skin in the posterodorsal region of female BALB/c mice (8 mice per group) on day 0. […] On day 8, the mice were euthanized and tumors were collected. Using gentle MACS dissociator (manufactured by Miltenyi Biotec) in accordance with the instruction manual, tumor-infiltrating lymphocytes (TIL) were separated from the tumors. The collected cells were seeded into a 24 well plate and stimulated with phorbol 12-myristate 13-acetate (PMA) and ionomycin under the condition of 37° C. for an hour, and then cultured with GolgiPlug (BD Biosciences) for 6 hours. After collecting the cells, the cells were stained with PreCP-CyTM5.5 rat anti-mouse CD4 antibody (manufactured by BD Pharmingen) and V500 rat anti-mouse CD8a antibody (manufactured by BD Horizon) under the condition of 4° C. for 15 minutes. The stained cells were fixed with Fixation/Permeabilization Concentrate and Diluent (1:3, manufactured by eBioscience) under the condition of 4° C. overnight. […] The stained cells were analyzed using FACS Canto II flow cytometer (manufactured by Becton Dickinson).

[4] = system: HEK293/NF-κB-RE cells; assay: NF-κB luciferase reporter in HEK293/NF-κB-RE cells without FOXP3, with TNF-alpha; assay type: cell-based, human; settings: epirubicin 0.003-1 μM, TNF-alpha 0.3 ng/mL, FIG. 1(B)
Text: Herein, the activity of inhibiting FOXP3 function can be evaluated by preparing HEK293 cells (HEK293/NF-κB-RE cells) into which a luciferase reporter vector has been stably introduced and cells (HEK293/NF-κB-RE/FOXP3 cells) obtained by stably introducing the FOXP3 gene into the HEK293/NF-κB-RE cells, adding a test drug and TNF-alpha (TNF-α) thereto, followed by culture, and measuring a difference in chemiluminescence intensity in each cell group.
Into a human embryonic kidney-derived cell line HEK293 (RIKEN CELL BANK), pGL4.32 [luc2P/NF-κB-RE/Hygro] (Promega Corporation), which is a luciferase reporter vector, was introduced, and the cells were subjected to a selection through culture in a medium containing 0.2 mg/mL Hygromycin B for 3 weeks. The obtained single clone was isolated and established as a stable line. For culture, DMEM (Dulbecco's Modified Eagle's Medium) containing 10% heat inactivated FBS and 0.2 mg/mL Hygromycin B was used.
A cell suspension of 1.875×10^5 cells/mL was prepared for HEK293/NF-κB-RE/FOXP3 cells and HEK293/NF-κB-RE cells, respectively, using DMEM with 10% heat inactivated FBS and without phenol red (medium for assay). […]
The culture supernatant was removed, and the cells were washed once with 100 μL of the medium for assay. […] After shaking, the chemiluminescence intensity was measured by ARVO Light plate reader (Perkin Elmer). […]

[5] = test drug concentration 0.01 (μM)
[6] = test drug concentration 0.03 (μM)
[7] = test drug concentration 0.1 (μM)
[8] = test drug concentration 0.3 (μM)

SMILES | Chemiluminescence intensity ratio (HEK293/NF-κB-RE/FOXP3 cells / HEK293/NF-κB-RE cells) [1, 5] | Chemiluminescence intensity ratio (HEK293/NF-κB-RE/FOXP3 cells / HEK293/NF-κB-RE cells) [1, 6] | Chemiluminescence intensity ratio (HEK293/NF-κB-RE/FOXP3 cells / HEK293/NF-κB-RE cells) [1, 7] | Chemiluminescence intensity ratio (HEK293/NF-κB-RE/FOXP3 cells / HEK293/NF-κB-RE cells) [1, 8] | Chemiluminescence intensity ratio (HEK293/NF-κB-RE/FOXP3 cells / HEK293/NF-κB-RE cells) ([1]; test drug concentration 1 (μM)) | FOXP3 inhibitory activity (Example 2, in words) ([1]; 0.01-1 μM, Table 2) | inhibition of FOXP3 function (conclusion of Example 1) ([1]; FOXP3 cells compared with cells without FOXP3) | chemiluminescence intensity compared to control ([1]; HEK293/NF-κB-RE/FOXP3 cells, 0.1 μM) | chemiluminescence intensity compared to control ([1]; HEK293/NF-κB-RE/FOXP3 cells, 0.3 or 1 μM) | chemiluminescence intensity ([1]; HEK293/NF-κB-RE/FOXP3 cells, epirubicin 0.003-1 μM, TNF-alpha 0.3 ng/mL, FIG. 1(A)) | growth rate of CD8+ T cells [2] | proportion of IFN-γ positive cells to CD4+FOXP3+ cells ([3]; FIG. 3(A)) | proportion of IFN-γ positive cells to CD4+FOXP3− cells ([3]; FIG. 3(B)) | chemiluminescence intensity [4]
COc1cccc2c1C(=O)c1c(O)c3c(c(O)c1C2=O)C[C@@](O)(C(C)=O)C[C@@H]3O[C@H]1C[C@H](N)[C@H](O)[C@H](C)O1 [Daunorubicin, daunorubicin] | 1.09 | 1.12 | 1.82 | 2.07 |  |  |  |  |  |  |  |  |  | 
COc1cccc2c1C(=O)c1c(O)c3c(c(O)c1C2=O)C[C@@](O)(C(=O)CO)C[C@@H]3O[C@H]1C[C@H](N)[C@H](O)[C@H](C)O1 [Doxorubicin, doxorubicin] | 0.97 | 1.08 | 1.14 | 1.29 | 1.38 |  |  |  |  |  |  |  |  | 
COc1cccc2c1C(=O)c1c(O)c3c(c(O)c1C2=O)C[C@@](O)(C(=O)CO)C[C@@H]3O[C@H]1C[C@H](N)[C@@H](O)[C@H](C)O1 [Epirubicin, epirubicin] | 1.29 | 1.39 | 1.42 | 1.62 | 2.37 | increased in a concentration-dependent manner | selectively inhibited FOXP3 function | significantly high as compared to that in the control at P<0.05 | significantly high as compared to that in the control at P<0.01 | increased in an epirubicin concentration-dependent manner | increased in a concentration-dependent manner | increased in a concentration-dependent manner | did not vary | concentration-dependent changes were not observed
CC(=O)[C@]1(O)Cc2c(O)c3c(c(O)c2[C@@H](O[C@H]2C[C@H](N)[C@H](O)[C@H](C)O2)C1)C(=O)c1ccccc1C3=O [Idarubicin, idarubicin] | 1.02 | 1.21 |  |  |  |  |  |  |  |  |  |  |  | 
COc1cccc2c1C(=O)c1c(O)c3c(c(O)c1C2=O)C[C@@](O)(C(=O)CO)C[C@@H]3O[C@H]1C[C@H](N)[C@H](O[C@@H]2CCCCO2)[C@H](C)O1 [Pirarubicin, pirarubicin] | 1.03 | 1.08 | 1.53 | 1.50 |  |  |  |  |  |  |  |  |  | 
